Test results reported in patent US12552835B2, “Composition comprising Regentide-012 or Regentide-013 for improving skin condition” (NINEBIOPHARM CO., LTD., priority 2020, dated 2026).
Where a SMILES comes first, the peptide text is derived from it. Bridges are numbered along the chain shown (N, C = ends).

How the values were obtained:
Assay type in all cases: cell-based, human
CCD-986Sk [1] = test: Cytotoxicity evaluation (CCK8 cell viability) in fibroblasts; conditions: 5 μM or 10 μM, 48 hours, FBS-free medium
Protocol: (§1) The cytotoxicities of Regentide-012 and Regentide-013 prepared in Example 1 above were evaluated. Specifically, cytotoxicities were measured in HaCaT cells, which are human epidermal keratinocytes, and CCD-986Sk, which is human fibroblasts. Keratinocytes were dispensed at 3×10^3 cells/well and fibroblasts were dispensed at 5×10^3 cells/well in a 96-well plate, and then cultured in cell culture conditions for 24 hours in a medium containing 10% FBS. After culturing, Regentide-012 and Regentide-013 were added to an FBS-free medium in an amount of 5 μM or 10 μM, and these were cultured for 48 hours. Thereafter, 10 μl per well of CCK8 reaction solution (Dojindo Molecular Technologies, Kumamoto, Japan) was treated and reacted for 4 hours, and then absorbance was measured at 450 nm. The average absorbance value for each sample group was obtained, and the cell viability was evaluated by comparing it with the absorbance values of cells that had not been treated with Regentide-012 and Regentide-013 as a control group.

HaCaT cells [2] = test: Cytotoxicity evaluation (CCK8 cell viability) in epidermal keratinocytes; conditions: 5 μM or 10 μM, 48 hours, FBS-free medium
Protocol: as §1

HaCaT cells [3] = test: Wound recovery effect of epidermal keratinocytes (insert gap migration); conditions: 1 and 2.5 μM, FBS-free medium, 16 and 40 hours
Protocol: (§2) In order to confirm the wound recovery effects of Regentide-012 and Regentide-013, HaCaT cells, which are epidermal keratinocytes, were attached to a 6-well plate with an adhesive insert (Insert, Ibidi, Wisconsin, USA). The cells were dispensed at 6×10^4 cells/well in each well of the insert, and then cultured in cell culture conditions for 24 hours in a medium containing 2% FBS. Thereafter, the insert was removed and washed once using 1×DPBS. Regentide-012 and Regentide-013 were added to the medium at various concentrations (0, 1, and 2.5 μM) in an FBS-free medium, and cell images were photographed at 100 times using a microscope (Nikon Eclipse E100, Tokyo, Japan) after 16 and 40 hours.

HaCaT cells [4] = test: Epidermal keratinocyte growth promoting efficacy (cell number); conditions: 0.5 μM, after 8 days
Protocol: (§3) In order to confirm the cell proliferation abilities of Regentide-012 and Regentide-013, HaCaT cells, which are epidermal keratinocytes, were dispensed at 1×10^4 cells/well in a 6-well plate, and then cultured for 6 hours in a medium containing 10% FBS. Thereafter, Regentide-012 and Regentide-013 were added at various concentrations (0, 0.1, 0.2, or 0.5 μM) and cultured for 8 days. The medium was replaced with a medium containing Regentide-012 and Regentide-013 in various concentrations every day, and the number of cells was measured at intervals of two days.

CCD986Sk cells = test: Fibroblast growth promoting efficacy (cell number); conditions: 0.5 μM, after 8 days
Protocol: as §3, with “CCD986Sk” for “HaCaT”, “fibroblasts,” for “epidermal keratinocytes,”

CCD-986Sk [5] = test: Wound recovery effect of fibroblasts (insert gap migration); conditions: 1 and 2.5 μM, FBS-free medium, 16 and 40 hours
Protocol: as §2, with “CCD-986sk, which is dermal” for “HaCaT”, “was” for “which are epidermal keratinocytes, were”, “[…] was” for “Regentide-012 and Regentide-013 were”, “measured” for “photographed”

| Compound | cytotoxicity to fibroblasts (CCD-986Sk [1]) | cytotoxicity to epidermal keratinocytes (HaCaT cells [2]) | cell numbers and cell migration abilities of epidermal keratinocytes (HaCaT cells [3]) | cell growth rate higher than the control group (HaCaT cells [4]) [%] | cell growth rate higher than the control group (CCD986Sk cells) [%] | cell numbers and cell migration abilities of fibroblasts (CCD-986Sk [5]) |
| --- | --- | --- | --- | --- | --- | --- |
| CC[C@H](C)[C@H](NC(=O)[C@H](CCC(N)=O)NC(=O)[C@H](CCC(=O)O)NC(=O)[C@@H](N)CCCCN)C(=O)NCC(=O)N[C@@H](CCCCN)C(=O)N[C@H]1CSSC[C@@H](C(=O)N[C@@H](CCCNC(=N)N)C(=O)N[C@@H](CCCNC(=N)N)C(=O)N[C@@H](CCCCN)C(=O)N[C@@H](CCCCN)C(=O)O)NC(=O)[C@H](Cc2c[nH]c3ccccc23)NC(=O)[C@H](CCCCN)NC(=O)[C@H](CCCNC(=N)N)NC(=O)CNC(=O)[C@H](CCCNC(=N)N)NC(=O)[C@H]([C@@H](C)O)NC(=O)[C@H](CO)NC1=O [Regentide-012, KEQIGKCSTRGRKWCRRKK] (H-KEQIGKCSTRGRKWCRRKK-OH; disulfide 7-15) | not toxic | not toxic |  |  |  |  |
| CC[C@H](C)[C@H](NC(=O)[C@H](CCC(N)=O)NC(=O)[C@H](CCC(=O)O)NC(=O)[C@H](CCCCN)NC(C)=O)C(=O)NCC(=O)N[C@@H](CCCCN)C(=O)N[C@H]1CSSC[C@@H](C(=O)N[C@@H](CCCNC(=N)N)C(=O)N[C@@H](CCCNC(=N)N)C(=O)N[C@@H](CCCCN)C(=O)N[C@@H](CCCCN)C(N)=O)NC(=O)[C@H](Cc2c[nH]c3ccccc23)NC(=O)[C@H](CCCCN)NC(=O)[C@H](CCCNC(=N)N)NC(=O)CNC(=O)[C@H](CCCNC(=N)N)NC(=O)[C@H]([C@@H](C)O)NC(=O)[C@H](CO)NC1=O [Regentide-013, Ac-KEQIGKCSTRGRKWCRRKK-NH2] (Ac-KEQIGKCSTRGRKWCRRKK-NH2; disulfide 7-15) | not toxic | not toxic | increased the cell numbers and cell migration abilities | 60.8 | 43.9 | increased the cell numbers and cell migration abilities |
